Values of other authors, collected in patent US20050171000A1, “Three dimensional coordinates of melanocortin-4 receptors” (The Procter & Gamble Company, priority 2003, published 2005).

Target: T1, MC4-R (Rattus norvegicus, UniProt P70596)
T1 construct: host or cells: living rats, intraventricular administration (endogenous receptor)
Settings: intraventricular administration

T1 sequence (P70596 whole entry): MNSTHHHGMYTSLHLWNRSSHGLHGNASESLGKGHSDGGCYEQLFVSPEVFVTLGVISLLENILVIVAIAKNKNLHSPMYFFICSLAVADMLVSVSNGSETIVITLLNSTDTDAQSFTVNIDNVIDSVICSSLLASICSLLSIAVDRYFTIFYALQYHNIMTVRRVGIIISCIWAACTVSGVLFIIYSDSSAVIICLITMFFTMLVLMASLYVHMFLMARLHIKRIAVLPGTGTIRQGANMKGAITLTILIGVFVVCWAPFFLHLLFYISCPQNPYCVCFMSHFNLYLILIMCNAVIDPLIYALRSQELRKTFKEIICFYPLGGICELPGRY

In the case of MTII, the food intake is given as “reduced”.
